Experiments:
hBD-2 = assay: Immunohistochemistry of hBD-2 peptide in skin explants; assay type: cell-based, human; details: skin explant, qualitative
Experimental: (§1) Les échantillons inclus dans la résine Tissue Tek® sont coupés à froid (température de la chambre à -25°C et la température du porte-objet à - 28°C) à l'aide d'un cryostat (Leica CM 3050s, Nussloch). Les cryocoupes d'une épaisseur de 5 µm sont récupérées sur des lames porte-objet prétraitées, puis mises à sécher environ 2 h à température ambiante et stockées à -20°C pour une utilisation ultérieure. Avant de réaliser l'immuno-marquage, les coupes sont fixées à l'acétone à -20°C pendant 10 min, séchées et conservées à -20°C. Lors d'une première étape, les coupes sont hydratées puis incubées avec les anticorps primaires dirigés contre les peptides d'intérêt dilués dans du PBS. Les anticorps primaires utilisés sont les suivants : • Goat Anti-human BD-2 (500-P161G, Peprotech Inc) dilué au 1/50^e • Rabbit Anti-human defensin-3 (AB3478, Chemicon international) dilué au 1/1000^e • Rabbit Anti-human LL37 (G-075-06, Phoenix Pharmaceuticals Inc) dilué au 1/50^e
(§2) Pour révéler le complexe Antigène-Anticorps, le kit DAKO LSAB® (DAKO Corporation) est utilisé selon les recommandations du fournisseur. La révélation est réalisée à l'aide d'un substrat de la péroxydase : la 3,3'diaminobenzidine (DAB) (DAKO Corporation). […]

[1] = system: Staphylococcus epidermidis; assay: Development of endogenous commensal S. epidermidis on skin explant during 24 h after adhesion step; assay type: cell-based; details: systemic treatment, in words
Experimental: Il est par ailleurs possible d'observer la colonisation de l'explant par le germe exogène (S. aureus) après l'étape d'adhésion pendant 24 h. […] L'effet inverse est observé avec le traitement par le TNF-α, cytokine pro-inflammatoire, qui après avoir entraîné une forte chute de l'adhésion de S. aureus (Cf.III.4.2) ne permet pas une limitation de la croissance du germe pathogène sur l'explant et ceci au dépend du germe commensal S. epidermidis.
La figure 12 annexée illustre la comparaison de la colonisation d'une souche contaminante, S. aureus, avec celle d'une souche commensale, S. epidermis.

hBD-3 = assay: Immunohistochemistry of hBD-3 peptide in reconstructed gingival epithelium; assay type: cell-based, human; details: vs untreated sample, qualitative
Experimental: as §1, §2

Substance: laurate de butylglucoside [αβ-LBG brut]
- production du peptide hBD-2 dans les couches supérieures de l'épiderme (hBD-2; systemic, 24 h): stimulation de la production
- production du peptide hBD-2 dans les couches supérieures de l'épiderme (hBD-2; topical): stimulation de la production
- développement du germe commensal S. epidermidis [1]: favorise à l'inverse le développement d'un germe commensal endogène
- production du peptide hBD-3 par les cellules de l'épithélium gingival reconstruit (hBD-3): confirmer la production du peptide hBD-3

From patent publication EP1978972B1, “USE OF ALKYLGLUCOSIDE ESTERS AS BETA-DEFENSIN INDUCERS” (Pierre Fabre Dermo-Cosmétique, priority 2006, dated 2007)
